Patent US20060154243A1 (priority 2003, published 2006)

Assays:
[1] = test system: rabbit serum obtained by immunizing with SARS-CoV strain Frankfurt 1; type: binding
serum 37 (individual 37) = type: binding, human
serum SARS-green = type: binding, human
serum SARS-yellow = type: binding, human
serum 2 (individual 2) = type: binding, human
serum London = type: binding, human
[2] = test system: serum 1b (individual 1, late serum); type: binding, human
[3] = test system: serum 1a (individual 1, early serum); type: binding, human
[4] = test system: control serum Blood-bank (commercial negative donor pooled serum); type: binding, human
serum 6 (individual 6) = type: binding, human
[5] = test system: control serum LUMC (pooled serum of ten healthy hospital workers); type: binding, human
serum 62 (individual 62) = type: binding, human

Sequence	Recognition by the rabbit serum [1]	Binding of serum 37 to linear peptides of Orf14 of SARS-CoV TOR2 (serum 37 (individual 37))	Binding of serum SARS-green to linear peptides of Orf14 of SARS-CoV TOR2 (serum SARS-green)	Binding of serum SARS-yellow to linear peptides of Orf14 of SARS-CoV TOR2 (serum SARS-yellow)	Binding of serum 2 to linear peptides of Orf14 of SARS-CoV TOR2 (serum 2 (individual 2))	Binding of serum London to linear peptides of Orf14 of SARS-CoV TOR2 (serum London)	Binding of serum 1b to linear peptides of Orf14 of SARS-CoV TOR2 [2]	Binding of serum 1a to linear peptides of Orf14 of SARS-CoV TOR2 [3]	Control Serum Blood-Bank Looped peptides [4]	Control serum Blood-bank linear peptides [4]	Binding of serum 6 to linear peptides of Orf14 of SARS-CoV TOR2 (serum 6 (individual 6))	Control serum LUMC linear peptides [5]	Control serum LUMC looped peptides [5]	Binding of serum 62 to linear peptides of Orf14 of SARS-CoV TOR2 (serum 62 (individual 62))
AAVKPLLAPHHVVAV	recognized by the rabbit serum	0.9	0.6	0.8	1.0	0.8	0.6	0.8	0.6	1.0	0.7	1.0	0.7	0.9
VKPLLAPHHVVAVIQ	recognized by the rabbit serum	0.7	0.3	0.4	0.6	0.6	0.5	0.6	0.7	0.7	0.5	0.6	0.6	0.5
LAPHHVVAVIQEIQL		0.5	0.1	0.4	0.4	0.4	0.4	0.5	0.5	0.3	0.4	0.6	0.5	0.4
KPLLAPHHVVAVIQE		0.6	0.3	0.4	0.4	0.4	0.4	0.5	0.6	0.5	0.4	0.6	0.6	0.4
VIQEIQLLAAVGEIL		0.6	0.5	0.3	0.4	0.4	0.4	0.5	0.5	0.4	0.3	0.6	0.9	0.4
HHVVAVIQEIQLLAA		0.5	0.2	0.4	0.4	0.4	0.4	0.4	0.5	0.4	0.4	0.4	0.4	0.3
IQEIQLLAAVGEILL		0.7	0.3	0.4	0.4	0.3	0.4	0.5	0.6	0.4	0.4	0.6	0.5	0.4
QREAEAAVKPLLAPH		0.4	0.3	0.2	0.4	0.4	0.3	0.4	0.7	0.4	0.5	0.4	0.7	0.3
AVIQEIQLLAAVGEI		1.7	2.5	2.3	1.7	1.7	2.4	2.1	0.5	1.8	2.0	1.4	0.5	2.1
IQLLAAVGEILLLEW		0.6	0.2	0.4	0.5	0.4	0.4	0.5	0.6	0.5	0.4	0.6	0.5	0.4
LEWLAEVVKLPSRYC		0.7	0.1	0.2	0.4	0.5	0.3	0.6	0.8	0.4	0.4	0.4	0.7	0.4
PHHVVAVIQEIQLLA		0.5	0.2	0.4	0.4	0.3	0.3	0.4	0.5	0.4	0.4	0.5	0.6	0.3
PLLAPHHVVAVIQEI		0.6	0.2	0.4	0.4	0.5	0.4	0.5	0.6	0.4	0.4	0.5	0.6	0.4
QEIQLLAAVGEILLL		0.6	0.2	0.5	0.5	0.3	0.4	0.5	0.6	0.4	0.4	0.7	0.5	0.4
